# According to US20230201262A1, “MYELOMA-SPECIFIC IMMUNITY REQUIRES THE DIFFERENTIATION OF STEM-LIKE MEMORY T CELLS IN THE BONE MARROW” (Fred Hutchinson Cancer Center, priority 2021, published 2023):
# Entries after “also recorded” stand apart in the source; their conditions may differ.
# Legend:
# Vk*MYC myeloma = assay type: in vivo
# Text: To achieve this, a system of allogeneic BMT was developed where C57B⅙ recipients are transplanted with BM and T cell grafts from minor MHC (major histocompatibility complex)-mismatched C3H.SW donors (alloBMT) or syngeneic C57B⅙ donors (synBMT). A green fluorescent protein (GFP)-expressing MLL-AF9-driven leukemia that allows for monitoring of tumor cells in peripheral blood and Vk*MYC myeloma that secretes immunoglobulin G (IgG), which can be monitored by serum protein electrophoresis as an M-band (albumin/gamma ratio) that is a hallmark of clinical disease, were utilized.
# (§1) Stem cell transplantation: Recipient mice were intravenously injected with Vk12653, which originated from Vk*MYC transgenic mice, 2 weeks before BMT (1 × 10^6 CD138^+CD19neg cells; MM-bearing mice) or with an MLL-AF9-driven AML (MLL-AF9; 0.1 × 10^6 GFP^+) or BCR-ABL-NUP98-HOXA9 (1.0 × 10^6 GFP^+) on D0 (AML-bearing mice). Recipients were transplanted with BM and T cell grafts (doses detailed in the figure legends) administered via tail vein injection the day after lethal irradiation (1000 cGy for C57B⅙ and 1100 cGy for B62DF1, 137Cs source). Every 2 weeks, serum samples were collected from MMbearing recipients, and M-band was quantified using a Sebia Hydrasys serum protein electrophoresis system ([…] 2 Scan). Leukemia cell number in blood was calculated weekly using flow cytometry to quantify GFP^+ cells in blood. Recipients were monitored daily, up to 120 days after BMT, and euthanized when hindlimb paralysis occurred or clinical scores reached ≥6. In competing risk analyses, deaths were attributed to myeloma if the M-band was above 0.28, a defined relapse threshold. In the leukemia models, leukemic death was defined by a white blood cell count above 50 × 10^6/ml or a GFP^+ leukemia frequency above 50% in blood or BM. For some experiments, mice were treated with 100 µg of anti-TIGIT monoclonal antibody (mAb; 4B1, Bristol Myers Squibb) or mouse IgG2a (anti-KLH) twice a week for 4 weeks from D+14 postalloBMT. For other experiments, mice were treated with 100 µg of Fc-dead anti-TIGIT mAb (D265A, Bristol Myers Squibb) or mouse IgG1 (anti-KLH.1) twice a week for 6 weeks from D+21 postalloBMT. Cyclophosphamide (Fisher Scientific; 99.5%, MP Biomedicals) was intraperitoneally administered at 50 mg/kg on D+3 and D+4 after alloBMT (PT-Cy). […] DR-18 was supplied by Simcha Therapeutics (New Haven, CT).
# (§2) Cell preparation for flow cytometry: Recipient mice were euthanized 2 to 8 weeks after transplant, and cells from BM or blood were harvested. For BM aspirates, mice were anesthetized and treated with a local analgesic (0.5% lidocaine) followed by injection of 30 µl of phosphate-buffered saline (PBS) into the femur to allow up to 10 µl of marrow to be aspirated for fluorescence- activated cell sorting (FACS) analysis. For surface marker phenotyping, isolated cells were incubated with Fc-block before staining with fluorescently tagged antibodies (listed in Table 1), on ice for 30 min. For intracellular staining, cells were surface labeled, fixed, and permeabilized (eBioscience, Foxp3 Transcription Factor Staining Buffer Kit) before intracellular staining at room temperature for 60 min. To measure cytokine production, cells were stimulated for 4 hours at 37° C. with PMA (500 ng/ml) and ionomycin (50 ng/ml; Sigma-Aldrich) with brefeldin A (BioLegend). All samples were acquired on a BD LSR Fortessa (BD Biosciences) or BD FACSymphony A3 (BD Biosciences) and analyzed using FlowJo software (v10). t-SNE analysis was performed using the FlowJo plugin with default settings on a concatenated sample with 3000 CD8 T cells per mouse. FlowSOM analysis was performed with 3000 to 4000 CD8 or CD4 T cells per mouse concatenated after downsampling.
# Statistical analysis: Data are presented as means ± SEM, and P < 0.05 was considered significant. Survival curves were plotted using Kaplan-Meier estimates and compared by log-rank (Mantel-Cox) test.
# T cells in the BM = system: T cells in the BM
# Experimental: It was next investigated whether it was possible to eliminate highly activated, alloreactive T cells to preserve T cell subsets that could be safely harnessed to improve GVT responses in the BM after alloBMT. […] T cell phenotypes in the BM were first assessed 14 days after transplantation in MM-free mice to generate a dataset that could be broadly interpreted independent of specific tumor induced phenotypes. Single-cell sequencing was performed on sorted T cells from BM with the 10x Genomics Multiome platform to measure concurrent changes in gene expression (RNA sequencing) and chromatin accessibility (ATAC (assay for transposase-accessible chromatin) sequencing).
# as §2
# Single-cell RNA/ATAC sequencing: Naive C57B⅙ mice were transplanted with C3H.SW grafts and were untreated (alloBMT) or treated with PT-Cy (50 mg/kg) on D+3 and D+4 (PT-Cy). BM was harvested from femurs (four mice pooled per group) at D+14 after alloBMT, and T cells were sort-purified (CD90.2^+CD4^+ and CD90.2^+CD8^+) before nuclei preparation according to the 10x Genomics Multiome protocol. Nuclei (also referred to as cells herein) were captured and libraries were generated according to the manufacturer’s specifications. Libraries were sequenced using Illumina NovaSeq 6000 targeting a depth of 25,000 reads per cell per library.
# Single-cell RNA/ATAC analysis: Reads were demultiplexed and processed using cellranger-arc v1.0.1 aligning reads to GENCODE vM23/Ensembl98. Peaks were called from each sample’s fragment file (cellranger output) using MACS2 using the parameters “--nomodel --extsize 200 --shift -100.” Quantification of reads in MACS2 peaks were calculated and integrated with cellranger RNA output using Signac. Cells meeting the following criteria (calculated using Signac) were retained for downstream analysis: percent mitochondrial RNA reads <10%; 3 > log10(ATAC counts) < 4.5; 3 > log10(RNA/UMI counts) < 4.5; fraction of reads in peaks >40%; transcription start site (TSS) percentile >75%. RNA/unique molecular identifier (UMI) counts were subject to a variance-stabilized normalization procedure using Seurat’s “glmGamPoi” function before dimensionality reduction using principal components analysis (PCA).
# [1] = system: BCR-ABL-NUP98-HOXA9 leukemia
# Experimental: Recipients were untreated (haploBMT) or administered PT-Cy (50 mg/kg) on D+3 and D+4 (PT-Cy) with or without decoy-resistant IL-18 (PT-Cy + DR-18; 8 µg twice weekly from D+7 to week 5) or CD137 agonist antibody (PT-Cy + αCD137; 100 µg twice weekly from D+7 to week 5).
# It was next sought to explore the combination of agonist immunotherapy with PT-Cy in a model of haploidentical transplantation (haploBMT), a setting where PT-Cy is a clinical standard of care. In this model, there is a major genetic mismatch between the recipient and the donor whereby lethal GVHD occurs in the absence of any immunosuppressive interventions.
# To explore the mechanisms of DR-18-driven GVL in a haploBMT setting, donor cells from a triple reporter mouse (FoxP3-RFP × IL-10-GFP × IFN-γ-YFP) were used to measure in vivo cytokine production without restimulation. Phenotyping was performed in mice with low leukemia burden to minimize the effect of tumor cells on T cell number in the BM.
# as §1
# [2] = 50 mg/kg D+3 and D+4, vs untreated recipients
# [3] = 50 mg/kg D+3 and D+4, D+14, multiome sequencing, vs untreated alloBMT
# [4] = 50 mg/kg D+3 and D+4, vs untreated haploBMT
# [5] = 21 days after transplantation, vs untreated haploBMT
# [6] = 21 days, PT-Cy vs untreated haploBMT
smiles,measurement,setting,value
"O=P1(N(CCCl)CCCl)NCCCO1 (stereo not shown) [PT-Cy, cyclophosphamide]",overall survival,"Vk*MYC myeloma; 50 mg/kg D+3 and D+4, vs untreated alloBMT",did not significantly reduce overall survival
same,myeloma burden (M-band) at 4 weeks after alloBMT,Vk*MYC myeloma; [2],early myeloma cytoreduction with reduced M-bands
same,myeloma progression (M-band) 8 weeks after alloBMT,Vk*MYC myeloma; [2],subsequent increase in myeloma progression
same,"CD8+ T cell phenotype in BM, MM-bearing recipients",Vk*MYC myeloma; 7 weeks after transplant,most CD8^+ T cells were DNAM-1-TIGIT^+ with high expression of TOX and TIM-3
same,total numbers of CD4+ and CD8+ T cells in BM,Vk*MYC myeloma; 7 weeks after transplant,reduction in total numbers of CD4^+ and CD8^+ T cells
same,total T cell numbers (CD8 and CD4) in BM,Vk*MYC myeloma; D+14 (MM-free) and D+21 (MM-bearing) after alloBMT,concurrently reduced; also recorded: reduces the total number of CD8 and CD4 T cells
same,"chromatin accessibility (gene activity scores) of Il18r1, Il2ra, Il7r in CD8+ and CD4+ T cells","T cells in the BM; 50 mg/kg D+3 and D+4, D+14, ATAC",increased gene activity scores
same,gene signature expression in BM CD8+ T cells,T cells in the BM; [3],higher expression of stem-like memory gene signatures
same,gene signature in BM CD4+ T cells,T cells in the BM; [3],largely enriched for a TSCM signature
same,"CD8+ T cell phenotype in BM, MM-free recipients",T cells in the BM; 7 weeks after transplant,most CD8^+ T cells were DNAM-1^+TIGIT^- and did not express TOX or TIM-3
same,"CD8+ central memory and terminal effector T cells, MM-free recipients",T cells in the BM; 7 weeks after transplant,increase in CD8^+ central memory (TCM; CD44^+CD62L^+) and a decrease in terminal effector (TEFF; CD44^-CD62L^-) T cells
same,"frequency of alloreactive, exhausted T cells in the BM",T cells in the BM; D+14,"reduced the frequency of alloreactive, exhausted T cells"
same,granzyme B production by CD8+ T cells,"T cells in the BM; D+14, RNA and protein expression",did not abrogate granzyme B production
same,CD4+ T cell exhaustion signature in FoxP3- conventional CD4+ T cells,"T cells in the BM; D+14, flow cytometry",largely indistinguishable from synBMT recipients
same,"DNAM-1, TIGIT, PD-1 and TOX expression on BM CD8+ T cells","T cells in the BM; D+14, flow cytometry, vs alloBMT without PT-Cy","significantly increased DNAM-1 and reduced TIGIT, PD-1, and TOX expression"
same,incidence of lethal GVHD,[1]; [4],reduced the incidence of lethal GVHD
same,relapse-related mortality,[1]; [4],increased relapse-related mortality
same,CD8+ T cell numbers in the BM,[1]; [5],reduced
same,NK cells in the BM,[1]; [5],increased
same,CD4+ IFN-γ production,[1]; [6],unaffected
same,frequency of IFN-γ+ CD8+ T cells,[1]; [6],minimally decreased
same,overall survival,[1]; PT-Cy vs untreated haploBMT,no difference in overall survival
